According to PMC8955773 (Pharmaceuticals, 2022):
Where “and” joins values, the source holds several entries; their conditions need not be identical. Equal values may be shown once. Entries after “also recorded” stand apart in the source; their conditions may differ. Read-outs that look alike come from different tables or passages of the source.

Tests used:
[1] = molecular target: T1, Butyrylcholinesterase (EC 3.1.1.8, BChE) from equine serum (eqBChE) (Equus caballus, UniProt P81908); assay: Butyrylcholinesterase inhibition, Ellman's method; type: biochemical; details: for IC50: eqBChE, BTCI substrate, pH 8.0, 37 °C, mean ± SD of three independent experiments
T1 construct: Butyrylcholinesterase (EC 3.1.1.8, BChE) was from equine serum (eqBChE) (Sigma-Aldrich); purchased Sigma-Aldrich; host or cells: equine serum
Experimental: The effect of the benzofuran derivatives was evaluated on the commercial enzyme from an animal source due to its low cost and remarkable similarity with the human enzyme.
The cholinesterase inhibition activity was executed using Ellman’s method, as previously described with slight modifications.
S-Butyrylthiocholine iodide (BTCI) and 5,5′-dithiobis-(2-nitrobenzoic) acid (DTNB) (Merck/Sigma-Aldrich) were used for the determination of the BChE activity. Butyrylcholinesterase (EC 3.1.1.8, BChE) was from equine serum (eqBChE) (Sigma-Aldrich). We used 96-well plates for analysis, to each well we added 70 μL phosphate-buffered (0.1 M, pH 8.0), 4 μL different concentration of the tested compounds or dimethyl sulfoxide (for control experiment), 6 μL enzyme (final concentration 0.15 U/mL in buffer), and 100 μL DTNB (1.5 mM final). The solution was preincubated for 5 min at 37 °C, then 20 μL BTCI 1.5 mM solution as the substrate was added to the reaction mixture. The absorbance change was measured at 405 nm, with a microplate reader FLUOstar OPTIMA (BMG Labtech, Offenburg, Germany). […] Each experiment was done in triplicate.
The statistical significance of differences was evaluated using one-way analysis of variation (one-way ANOVA), and Tukey’s multiple comparisons. Results were expressed as mean ± standard deviation (SD), and statistically significant differences were evaluated with p < 0.001 as a minimal significance level.

[2] = molecular target: T1, Butyrylcholinesterase (EC 3.1.1.8, BChE) from equine serum (eqBChE)
[3] = read-out: IC50, inhibitory effect on BChE activity
[4] = 2-phenylbenzofurans without spacer; cited from earlier work

T1 sequence (P81908 whole entry): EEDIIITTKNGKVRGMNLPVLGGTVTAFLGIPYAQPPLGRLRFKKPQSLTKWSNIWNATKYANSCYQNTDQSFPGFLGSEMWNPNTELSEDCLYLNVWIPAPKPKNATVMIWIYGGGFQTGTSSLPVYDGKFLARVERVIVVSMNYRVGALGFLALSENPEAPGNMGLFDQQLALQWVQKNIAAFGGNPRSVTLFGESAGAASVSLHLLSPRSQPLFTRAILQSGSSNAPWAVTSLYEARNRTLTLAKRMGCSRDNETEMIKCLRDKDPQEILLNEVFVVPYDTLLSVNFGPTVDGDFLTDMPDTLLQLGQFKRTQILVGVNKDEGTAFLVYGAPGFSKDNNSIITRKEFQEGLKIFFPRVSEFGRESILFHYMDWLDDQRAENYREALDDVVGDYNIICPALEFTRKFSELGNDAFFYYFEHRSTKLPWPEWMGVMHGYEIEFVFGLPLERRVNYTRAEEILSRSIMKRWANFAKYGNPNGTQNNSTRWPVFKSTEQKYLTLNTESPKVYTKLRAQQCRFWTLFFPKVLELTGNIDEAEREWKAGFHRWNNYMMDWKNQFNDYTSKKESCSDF

SMILES | IC50 [1, 3] | further results
Oc1ccc(Cc2cc3cc(Cl)ccc3o2)cc1 [Compound 11B] | 55.7 ± 0.8 µM | 
Oc1ccc(Cc2cc3cccc(Br)c3o2)cc1 [Compound 10B] | 32.6 ± 2.04 µM | 
Oc1cccc(Cc2cc3cccc(Cl)c3o2)c1 [Compound 16B] | 61.7 ± 5.9 µM | 
Oc1ccc(-c2cc3cc(Br)ccc3o2)cc1 [Compound 9A] |  | BChE inhibitory activity (in words) [2, 4]: no activity; also recorded: negligible inhibitory activity; also recorded: no BChE inhibition; IC50 ([2]; read-out: IC50, inhibitory effect on BChE activity; 2-phenylbenzofurans given for comparison; cited from earlier work): > 100 µM
Oc1cccc(Cc2cc3cc(Br)ccc3o2)c1 [Compound 13B] | 39.9 ± 4.31 µM | 
Oc1ccc(Cc2cc3cccc(Cl)c3o2)cc1 [Compound 12B] | 43 ± 5.65 µM | 
Oc1ccc(-c2cc3cccc(Br)c3o2)cc1 [Compound 10A] |  | BChE inhibitory activity (in words) [2, 4]: negligible inhibitory activity
Oc1cccc(Cc2cc3cccc(Br)c3o2)c1 [Compound 14B] | 31.37 ± 0.15 µM | 
Oc1ccc(-c2cc3cc(Cl)ccc3o2)cc1 [Compound 11A] |  | IC50 ([2]; 2-phenylbenzofurans given for comparison; read-out: IC50, inhibitory effect on BChE activity; cited from earlier work): > 100 µM
Oc1cccc(Cc2cc3cc(Cl)ccc3o2)c1 [Compound 15B, 5-chloro-2-(3-hydroxybenzyl)benzofuran] | 27.8 ± 3.07 µM | 
Oc1ccc(Cc2cc3cc(Br)ccc3o2)cc1 [Compound 9B, 5-bromo-2-(4-hydroxybenzyl)benzofuran] | 2.93 µM and 2.9 µM | inhibitory activity, fold higher than 14A ([1]; BChE, ratio of IC50 values): about 4 fold; inhibitory activity, times higher than galantamine ([1]; BChE, ratio of IC50 values): 10 times
Oc1cccc(-c2cc3cc(Br)ccc3o2)c1 [Compound 13A] |  | IC50 ([1]; IC50, inhibitory effect on BChE activity): 10.6 ± 1.65 µM
